Test results: US12187773B2, “Modified GIP peptide analogues” (Antag Therapeutics ApS, priority 2018, dated 2025)
Where two headings read alike, the source gives them in different places. Where a SMILES comes first, the peptide text is derived from it. The star is where a group is joined. C16 diacid = O=C(O)CCCCCCCCCCCCCCC(=O)*

Tests used:
human GIP receptor [1] = target: T1, human GIP receptor (Homo sapiens, UniProt P48546); assay: cAMP agonism (CisBio cAMP Dynamic 2 HTRF assay); type: cell-based
T1 sequence (P48546 22-466): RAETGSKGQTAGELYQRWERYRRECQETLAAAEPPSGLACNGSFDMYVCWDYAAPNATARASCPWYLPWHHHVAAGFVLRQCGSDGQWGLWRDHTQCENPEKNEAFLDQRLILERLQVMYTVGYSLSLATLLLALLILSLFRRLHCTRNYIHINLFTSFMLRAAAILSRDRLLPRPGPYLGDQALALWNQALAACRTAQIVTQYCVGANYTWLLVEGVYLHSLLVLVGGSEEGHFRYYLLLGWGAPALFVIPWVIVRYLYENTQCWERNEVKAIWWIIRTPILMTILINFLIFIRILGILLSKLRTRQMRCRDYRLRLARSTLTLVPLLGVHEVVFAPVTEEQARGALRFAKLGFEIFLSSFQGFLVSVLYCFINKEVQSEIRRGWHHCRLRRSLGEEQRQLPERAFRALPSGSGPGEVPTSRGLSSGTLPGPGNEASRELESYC
Description: To test for agonistic properties at the GIP receptor, compounds were diluted and added to cells as described above and incubated for 30 min at 37° C. The resulting increase in intracellular cAMP was determined using the CisBio cAMP Dynamic 2 HTRF Assay Kit as described above.

GLP1 receptor (GLP1R) = target: T2, GLP1 receptor (GLP1R) (Homo sapiens, UniProt P43220); assay: cAMP assay - selectivity, antagonism at GLP1 receptor; type: cell-based; conditions: Table 3A
T2 construct: expressed in transfected cells; host or cells: COS-7 (transient)
T2 sequence (P43220 24-463, species assumed): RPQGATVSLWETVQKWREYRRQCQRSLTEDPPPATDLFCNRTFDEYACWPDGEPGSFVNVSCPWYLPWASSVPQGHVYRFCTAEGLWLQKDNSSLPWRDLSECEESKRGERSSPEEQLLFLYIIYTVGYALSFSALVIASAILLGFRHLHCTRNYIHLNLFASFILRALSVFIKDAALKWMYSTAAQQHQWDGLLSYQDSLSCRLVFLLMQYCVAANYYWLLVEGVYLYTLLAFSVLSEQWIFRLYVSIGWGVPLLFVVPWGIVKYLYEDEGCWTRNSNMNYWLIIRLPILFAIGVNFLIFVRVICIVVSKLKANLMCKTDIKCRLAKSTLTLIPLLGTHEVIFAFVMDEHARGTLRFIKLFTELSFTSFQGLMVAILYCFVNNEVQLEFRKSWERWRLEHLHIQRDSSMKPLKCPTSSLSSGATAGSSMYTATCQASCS
Description: (§1) Transient transfected COS-7 cells expressing the either of the GLP1 receptor (GLP1R), GLP2 receptor (GLP2R), glucagon receptor (GcgR) or secretin receptor (SCTR) were seeded in white 96-well plates with a density of 3.5*10^4/well. The day after, the cells were washed twice with Hepes buffered saline (HBS) buffer and incubated with HBS and 1 mM 3-isobutyl-1-methylxanthine (IBMX) for 30 min at 37° C. To test for agonistic properties, ligands were added and incubated for 30 min at 37° C. In order to test for antagonistic properties, the cells were preincubated with the antagonists for 10 min prior to the addition the natural agonist for the expressed receptor (GLP1 for GLP1R expressing cells, GLP2 for GLP2R expressing cells, glucagon for the GcgR and secretin for the SCTR) and subsequent incubated for 20 additional min. […] The HitHunter™ cAMP XS assay (DiscoveRx) was carried out according to the manufacturer's instructions.

glucagon receptor (GcgR) = target: T3, glucagon receptor (GcgR) (Homo sapiens, UniProt P47871); assay: cAMP assay - selectivity, antagonism at glucagon receptor; type: cell-based; conditions: Table 3A; COS-7 cells; agonist glucagon at 50-80% of maximal cAMP
T3 construct: expressed in transfected cells; host or cells: COS-7 (transient)
T3 sequence (P47871 26-477, species assumed): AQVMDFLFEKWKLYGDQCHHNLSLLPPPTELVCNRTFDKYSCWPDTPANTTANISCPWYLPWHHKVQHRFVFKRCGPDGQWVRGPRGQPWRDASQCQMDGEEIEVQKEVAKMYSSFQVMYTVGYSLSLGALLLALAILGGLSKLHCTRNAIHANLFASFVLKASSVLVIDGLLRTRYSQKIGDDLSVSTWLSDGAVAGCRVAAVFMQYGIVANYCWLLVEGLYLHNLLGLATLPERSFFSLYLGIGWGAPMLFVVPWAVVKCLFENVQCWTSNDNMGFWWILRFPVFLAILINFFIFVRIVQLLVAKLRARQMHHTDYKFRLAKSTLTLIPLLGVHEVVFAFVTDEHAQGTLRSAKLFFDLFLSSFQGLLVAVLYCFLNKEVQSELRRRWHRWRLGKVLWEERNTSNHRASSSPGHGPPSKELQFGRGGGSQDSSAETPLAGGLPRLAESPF
Description: as §1

GLP2 receptor (GLP2R) = target: T4, GLP2 receptor (GLP2R) (Homo sapiens, UniProt O95838); assay: cAMP assay - selectivity, antagonism at GLP2 receptor; type: cell-based; conditions: Table 3B; COS-7 cells; agonist GLP2
T4 construct: expressed in transfected cells; host or cells: COS-7 (transient)
T4 sequence (O95838 1-553): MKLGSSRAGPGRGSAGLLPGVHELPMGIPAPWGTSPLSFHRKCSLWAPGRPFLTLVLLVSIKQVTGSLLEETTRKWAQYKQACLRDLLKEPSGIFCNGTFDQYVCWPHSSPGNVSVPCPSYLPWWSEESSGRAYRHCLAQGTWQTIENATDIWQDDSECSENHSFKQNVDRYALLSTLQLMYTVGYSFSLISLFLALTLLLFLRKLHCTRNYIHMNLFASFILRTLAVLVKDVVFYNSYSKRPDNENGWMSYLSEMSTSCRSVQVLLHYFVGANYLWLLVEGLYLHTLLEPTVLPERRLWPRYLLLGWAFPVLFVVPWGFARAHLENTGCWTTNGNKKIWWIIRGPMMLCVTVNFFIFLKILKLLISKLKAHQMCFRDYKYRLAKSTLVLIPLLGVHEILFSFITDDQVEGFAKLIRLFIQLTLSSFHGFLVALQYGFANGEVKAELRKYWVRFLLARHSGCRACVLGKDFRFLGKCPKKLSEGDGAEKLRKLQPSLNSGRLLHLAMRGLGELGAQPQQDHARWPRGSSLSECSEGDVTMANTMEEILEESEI
Description: as §1

secretin receptor (SCTR) = target: T5, secretin receptor (SCTR) (Homo sapiens, UniProt P47872); assay: cAMP assay - selectivity, antagonism at secretin receptor; type: cell-based; conditions: Table 3B; COS-7 cells; agonist secretin
T5 construct: expressed in transfected cells; host or cells: COS-7 (transient)
T5 sequence (P47872 23-440, species assumed): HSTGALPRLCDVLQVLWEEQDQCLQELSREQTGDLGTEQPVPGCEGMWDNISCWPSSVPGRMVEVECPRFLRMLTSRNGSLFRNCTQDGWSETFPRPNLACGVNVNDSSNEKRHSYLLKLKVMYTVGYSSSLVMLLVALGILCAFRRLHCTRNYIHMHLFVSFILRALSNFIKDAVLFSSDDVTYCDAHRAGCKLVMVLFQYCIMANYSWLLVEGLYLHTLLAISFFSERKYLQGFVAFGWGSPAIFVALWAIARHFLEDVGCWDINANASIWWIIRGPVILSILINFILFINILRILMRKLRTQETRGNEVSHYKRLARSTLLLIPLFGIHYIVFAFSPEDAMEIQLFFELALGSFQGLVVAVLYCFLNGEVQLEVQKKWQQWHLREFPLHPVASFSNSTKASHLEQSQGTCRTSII
Description: as §1

human GIP receptor [2] = target: T1, human GIP receptor; assay: cAMP antagonism (CisBio cAMP Dynamic 2 HTRF assay); type: cell-based; parameters: pCMV-Script vector
In short: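 Four-parameter fits of cAMP dose-response gave pIC50. cAMP fall was quantified by HTRF competition, ratio 665/620 nm after 60 min at room temperature, against a cAMP standard curve.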

human GIP receptor [3] = target: T1, human GIP receptor; assay: cAMP accumulation, antagonism (DiscoveRx HitHunter cAMP XS assay); type: cell-based; parameters: host or cells: COS-7 (transient, calcium phosphate; pCMV-Script vector)
In short: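 Transiently transfected COS-7 cells expressing human GIP receptor, pretreated with 1 mM IBMX in HBS 30 min at 37 °C. Agonism: ligand 30 min at 37 °C; antagonism: 10 min antagonist preincubation, then GIP at 50-80% maximal response for 20 min. cAMP measured by HitHunter cAMP XS.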

[4] = Elimination half-life (T1/2) estimated in Göttingen minipigs; type: in vivo
Description: 2-3 Göttingen minipigs were subcutaneously administered one of the GIP analogues of the present invention (1-10 nmol/kg, total volume 2-6 mL) and blood samples were collected before and up to 432 hours post subcutaneous administration.) from a central venous catheter. The catheter was flushed with saline and heparin between samples. Blood was collected into cold EDTA tubes, centrifuged and plasma was kept at −20° C. pending analyses.
Concentrations of the acylated GIP(3-30)NH2 or GIP(5-30)NH2 analogues in blood samples from Göttingen minipigs were analyzed by RIA. Analogues' immunoreactivity was determined using antiserum Ab95234, Ab95235, Ab95236, a polyclonal in-house antibody raised in rabbits specific for either the mid region of GIP(1-30)NH2 or amidated C-terminus of GIP(3-30)NH2.
In addition to the hormone analysis, blood concentrations of AT374, 380, 382-385, 392-393 were determined by LC/MS performed by Red Glead Discovery AB, Lund, Sweden. The plasma samples were precipitated by addition of 3 parts ethanol followed by thorough mixing. After centrifugation and dilution of the supernatant, the samples were analyzed by LC-MS/MS and compared with a 9-point calibration curve. The calibration curves were prepared in naïve plasma matrix from Göttingen minipigs.

human GIP receptor [5] = target: T1, human GIP receptor; assay: cAMP accumulation, agonism (DiscoveRx HitHunter cAMP XS assay); type: cell-based; parameters: host or cells: COS-7 (transient, calcium phosphate; pCMV-Script vector); conditions: Table 1B; DiscoveRx; COS-7 cells
In short: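 cAMP accumulation measured by HitHunter cAMP XS in COS-7 cells transiently expressing human GIP receptor, after 30 min in HBS with 1 mM IBMX at 37 °C. Antagonists preincubated 10 min before GIP giving 50-80% of maximum, then 20 min more; agonist mode used 30 min ligand exposure.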

[6] = GIPR, Antagonism, nM, Table 3C, CisBio assay
[7] = Table 1C, CisBio, HEK-293 cells
[8] = cAMP antagonism, nM (IC50), Table 1C, CisBio, HEK-293 cells, agonist GIP1-42 at EC50
[9] = Table 3A/3B, DiscoveRx, COS-7 cells

SMILES: CC[C@H](C)[C@H](NC(=O)[C@H](CO)NC(=O)[C@H](Cc1ccc(O)cc1)NC(=O)[C@H](CC(=O)O)NC(=O)[C@H](CO)NC(=O)[C@@H](NC(=O)[C@@H](N)Cc1ccccc1)[C@@H](C)CC)C(=O)N[C@@H](C)C(=O)N[C@@H](CCSC)C(=O)N[C@@H](CC(=O)O)C(=O)N[C@@H](CCCCN)C(=O)N[C@H](C(=O)N[C@@H](CCCCNC(=O)CCCCCCCCCCCCCCC(=O)O)C(=O)N[C@@H](CCC(N)=O)C(=O)N[C@@H](CCC(N)=O)C(=O)N[C@@H](CC(=O)O)C(=O)N[C@@H](Cc1ccccc1)C(=O)N[C@H](C(=O)N[C@@H](CC(N)=O)C(=O)N[C@@H](Cc1c[nH]c2ccccc12)C(=O)N[C@@H](CC(C)C)C(=O)N[C@@H](CC(C)C)C(=O)N[C@@H](C)C(=O)N[C@@H](CCC(N)=O)C(=O)N[C@@H](CCCCN)C(N)=O)C(C)C)[C@@H](C)CC [AT353] (H-FISDYSIAMDKIK(C16 diacid)QQDFVNWLLAQK-NH2; N-terminus assumed)
- Emax (human GIP receptor [1]; HEK293, read-out: cAMP agonism, % Efficacy, Table 1C, HEK-293 cells): 0%
- GLP-1R, Antagonism, %inhib (GLP1 receptor (GLP1R); COS-7 cells): 43%
- GLP-1R, Antagonism, index (GLP1 receptor (GLP1R); selectivity index versus GIPR): 44
- Glucagon R, Antagonism, nM (glucagon receptor (GcgR)): No antagonism
- GLP-2R, Antagonism (GLP2 receptor (GLP2R)): No antagonism
- Secretin R, Antagonism (secretin receptor (SCTR)): No antagonism
- IC50 (human GIP receptor [2]; [6]): 25.1 nM
- cAMP antagonism, % inhib (human GIP receptor [2]; [7]): 90%
- GIPR, Antagonism, % inhib (human GIP receptor [2]; Table 3C, CisBio assay): 90%
- IC50 (human GIP receptor [2]; [8]): 25.1 nM
- IC50 (human GIP receptor [3]; GIPR, Antagonism, nM, Table 3A/3B, DiscoveRx, COS-7 cells): 9 nM
- IC50 (human GIP receptor [3]; IC50-value (GIPR antagonism), Examples 1 and 2, values of Tables 1B and 2): 9 nM
- cAMP antagonism, % inhib (human GIP receptor [3]; Table 2, truncated GIP antagonists): 100.0%
- GIPR, Antagonism, % inhib (human GIP receptor [3]; [9]): 100.0%
- IC50 (human GIP receptor [3]; cAMP antagonism, nM (IC50), Table 2, truncated GIP antagonists): 9 nM

SMILES: CC[C@H](C)[C@H](NC(=O)[C@H](CO)NC(=O)[C@H](Cc1ccc(O)cc1)NC(=O)[C@H](CC(=O)O)NC(=O)[C@H](CO)NC(=O)[C@@H](NC(=O)[C@H](Cc1ccccc1)NC(=O)[C@@H](NC(=O)CNC(=O)[C@@H](N)CO)[C@@H](C)O)[C@@H](C)CC)C(=O)N[C@@H](C)C(=O)N[C@@H](CCSC)C(=O)N[C@@H](CC(=O)O)C(=O)N[C@@H](CCCNC(=N)N)C(=O)N[C@H](C(=O)N[C@@H](CCCCNC(=O)CCCCCCCCCCCCCCC(=O)O)C(=O)N[C@@H](CCC(N)=O)C(=O)N[C@@H](CCC(N)=O)C(=O)N[C@@H](CC(=O)O)C(=O)N[C@@H](Cc1ccccc1)C(=O)N[C@H](C(=O)N[C@@H](CC(N)=O)C(=O)N[C@@H](Cc1c[nH]c2ccccc12)C(=O)N[C@@H](CC(C)C)C(=O)N[C@@H](CC(C)C)C(=O)N[C@@H](C)C(=O)N[C@@H](CCC(N)=O)C(=O)N[C@@H](CCCNC(=N)N)C(N)=O)C(C)C)[C@@H](C)CC [AT392] (H-SGTFISDYSIAMDRIK(C16 diacid)QQDFVNWLLAQR-NH2; N-terminus assumed)
- cAMP agonism, % Efficacy (human GIP receptor [1]; Table 1C, HEK-293 cells): 0%
- half-life ([4]; Göttingen, minipig, plasma, subcutaneous, Example 1, read-out: T1/2 (converted)): 6 h
- half-life ([4]; sc, Table 1B, species not given, unit h, LC/MS in Göttingen minipig plasma for these IDs, subcutaneous 1-10 nmol/kg, read-out: T½ (converted)): 6 h
- GLP-1R, Antagonism, nM (GLP1 receptor (GLP1R); COS-7 cells, agonist GLP1 at 50-80% of maximal cAMP): No antagonism
- IC50 (human GIP receptor [2]; [6]): 68.1 nM
- cAMP antagonism, % inhib (human GIP receptor [2]; [7]): 96%
- GIPR, Antagonism, % inhib (human GIP receptor [2]; Table 3C, CisBio assay): 96%
- IC50 (human GIP receptor [2]; [8]): 68.1 nM
- cAMP antagonism, % inhib (human GIP receptor [3]; Table 1B, DiscoveRx, COS-7 cells, % inhibition of Emax): 93%
- GIPR, Antagonism, % inhib (human GIP receptor [3]; [9]): 93.0%
- IC50 (human GIP receptor [3]; cAMP antagonism, nM (IC50), Table 1B, DiscoveRx, transiently transfected COS-7 cells): 1 nM
- cAMP agonism, Emax (human GIP receptor [5]): No Agonism
